One assay addresses T1, human EHMT1 982-1266 (Homo sapiens, UniProt Q9H9B1).
T1 sequence (Q9H9B1 982-1266): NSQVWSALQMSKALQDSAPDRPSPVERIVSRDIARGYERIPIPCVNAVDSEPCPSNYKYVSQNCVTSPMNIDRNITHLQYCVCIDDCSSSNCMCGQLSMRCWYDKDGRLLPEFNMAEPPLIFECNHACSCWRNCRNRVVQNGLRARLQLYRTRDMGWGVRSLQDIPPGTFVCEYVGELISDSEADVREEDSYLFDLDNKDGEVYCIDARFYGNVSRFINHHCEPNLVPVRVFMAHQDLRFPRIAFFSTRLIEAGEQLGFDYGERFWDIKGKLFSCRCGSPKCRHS
The assay is described as follows: EHMT1 enzyme assay on histone peptide substrate (3H-SAM SPA). To be noted: EHMT1 IC50, recombinant human EHMT1 982-1266, histone peptide substrate.

The next assay concerns the target T2, human EHMT2 913-1193 (Homo sapiens, UniProt Q96KQ7).
T2 sequence (Q96KQ7 913-1193): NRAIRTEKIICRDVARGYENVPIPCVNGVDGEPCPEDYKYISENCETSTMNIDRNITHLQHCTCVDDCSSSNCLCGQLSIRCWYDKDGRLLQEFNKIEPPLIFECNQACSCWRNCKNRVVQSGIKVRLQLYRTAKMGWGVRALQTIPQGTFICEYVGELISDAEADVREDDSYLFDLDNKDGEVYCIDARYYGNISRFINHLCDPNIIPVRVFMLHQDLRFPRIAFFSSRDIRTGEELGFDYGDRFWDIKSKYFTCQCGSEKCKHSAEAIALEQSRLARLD
Description: EHMT2 enzyme assay on histone peptide substrate (3H-SAM SPA). To be noted: EHMT2 IC50, recombinant human EHMT2 913-1193, histone peptide substrate.

The subject of the next assay is H3K9me2 in HCT116 cells. Description: HCT116 H3K9me2 in-cell western assay. The format is cell-based. To be noted: Homo sapiens, HCT-116, 72 h, HCT116 cells, 72 hours incubation; read-out: H3K9me2 ICW IC50. The method, boiled down:
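HCT116 cells (2,000/well) were treated for 72 h at 37° C, 5% CO2, with ten two-fold dilutions from 10 μM in duplicate. After PFA fixation, cells were stained overnight at 4° C with anti-H3K9me2, then with an 800 CW secondary plus DRAQ5.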

Each structure is given as a SMILES string. pIC50: −log10 of the molar value.

What is called pIC50 is −log10 of the IC50, conventionally taken in molar units.

Consider `CNc1cc(C)nc(Nc2cc3c(c(C4=CCN(CC(F)F)CCC4)c2F)OCC3)n1` [Compound 199], for which the negative logarithm of the IC50 (pIC50) was 6.30 to 7.00 on human EHMT1 982-1266, 5.70 to 6.30 on human EHMT2 913-1193 and 6.30 to 7.00 in the assay on H3K9me2 in HCT116 cells.
On to `CNc1cc(C)nc(Nc2cc3c(c(C4=CC(C)N(C)CCC4)c2F)OCC3)n1` (stereo not drawn) [Compound 200], for which the pIC50 at human EHMT1 982-1266 was 6.30 to 7.00; at human EHMT2 913-1193, 5.70 to 6.30; in the assay with H3K9me2 in HCT116 cells, 6.30 to 7.00.
For the compound `CNc1cc(C)nc(Nc2cc3c(c(C4=CCN(C)CCC4)c2F)OCO3)n1` [Compound 203], the pIC50 on human EHMT1 982-1266, at human EHMT2 913-1193 and with H3K9me2 in HCT116 cells was over 7.00 each time.
As to `CNc1cc(C)nc(Nc2cc3c(c(C4=CCN(C)C(C)CC4)c2F)OCC3)n1` (stereo not drawn) [Compound 204], the pIC50 on human EHMT1 982-1266, on human EHMT2 913-1193 and in the assay with H3K9me2 in HCT116 cells was over 7.00 in each case.
Consider `CNc1nc(Nc2cc3c(c(C4=CCN(C)CCC4)c2F)OCO3)nc(C)c1F` [Compound 205], for which the values for the pIC50 on human EHMT1 982-1266, at human EHMT2 913-1193 and with H3K9me2 in HCT116 cells were 6.30 to 7.00, 5.70 to 6.30 and 6.30 to 7.00, respectively.
Take `CNc1cc(C)nc(Nc2cc3c(c(C4=CC(C)NCCC4)c2F)OCC3)n1` (stereo not drawn) [Compound 206]: the pIC50 at human EHMT1 982-1266 is over 7.00; at human EHMT2 913-1193, 6.30 to 7.00; in the assay on H3K9me2 in HCT116 cells, over 7.00.
For the compound `CNc1cc(C)nc(Nc2cc3c(c(C4=CCNCCC4)c2F)OCO3)n1` [Compound 207], the negative-log IC50 (pIC50) on human EHMT1 982-1266, at human EHMT2 913-1193 and in the assay with H3K9me2 in HCT116 cells was over 7.00 throughout.
As to `CNc1cc(Nc2cc3c(c(C4=CCN(C)CCC4)c2F)OCO3)nc(C)c1F` [Compound 208], the pIC50 on human EHMT1 982-1266, at human EHMT2 913-1193 and in the assay with H3K9me2 in HCT116 cells was 6.30 to 7.00 throughout.
Consider `CNc1nc(Nc2cc3c(c(C4=CCNCCC4)c2F)OCO3)nc(C)c1F` [Compound 209], for which the pIC50 at human EHMT1 982-1266 is 6.30 to 7.00; on human EHMT2 913-1193, 6.30 to 7.00; in the assay with H3K9me2 in HCT116 cells, over 7.00.
As to `CCc1c(C)nc(Nc2cc3c(c(C4=CCN(C)CCC4)c2F)OCC3)nc1NC` [Compound 210], the figures for the pIC50 on human EHMT1 982-1266, on human EHMT2 913-1193 and in the assay with H3K9me2 in HCT116 cells were over 7.00, 6.30 to 7.00 and over 7.00, respectively.
Turning to `CNc1cc(Nc2cc3c(c(C4=CCNCCC4)c2F)OCO3)nc(C)c1F` [Compound 211], the pIC50 at human EHMT1 982-1266, at human EHMT2 913-1193 and in the assay on H3K9me2 in HCT116 cells was over 7.00 in each case.
`CCc1c(C)nc(Nc2cc3c(c(C4=CCNCCC4)c2F)OCC3)nc1NC` [Compound 212]: the pIC50 on human EHMT1 982-1266, at human EHMT2 913-1193 and in the assay on H3K9me2 in HCT116 cells was over 7.00 throughout.
With `CNc1nc(Nc2cc3c(c(C4=CCN(C)CCC4)c2F)OCC3)nc(C)c1C` [Compound 214], the pIC50 at human EHMT1 982-1266, at human EHMT2 913-1193 and in the assay with H3K9me2 in HCT116 cells was over 7.00 each time.
`CNc1nc(Nc2cc3c(c(C4=CCN(C)CCC4)c2F)OCC3)nc(C)c1Cl` [Compound 215]: the negative logarithm of the IC50 (pIC50) on human EHMT1 982-1266 was 6.30 to 7.00; at human EHMT2 913-1193, 5.70 to 6.30; with H3K9me2 in HCT116 cells it was 6.30 to 7.00.
As to `[2H]C([2H])([2H])CNc1cc(C)nc(Nc2cc3c(c(C4=CCN(C)CCC4)c2F)OCC3)n1` [Compound 217], the pIC50 at human EHMT1 982-1266, on human EHMT2 913-1193 and with H3K9me2 in HCT116 cells was over 7.00 each time.
As for `[2H]Cc1nc(Nc2cc3c(c(C4=CCN(C)CCC4)c2)OCC3)nc(NC)c1F` [Compound 218], the pIC50 at human EHMT1 982-1266 was 6.30 to 7.00; at human EHMT2 913-1193 it was 5.70 to 6.30; in the assay on H3K9me2 in HCT116 cells it was 6.30 to 7.00.
`[2H]Cc1nc(Nc2cc3c(c(C4=CCN(C)CCC4)c2F)OCC3)nc(NC([2H])([2H])[2H])c1F` [Compound 219]: the pIC50 at human EHMT1 982-1266 was 6.30 to 7.00; at human EHMT2 913-1193 it was 6.30 to 7.00; in the assay with H3K9me2 in HCT116 cells it was over 7.00.
Regarding `[2H]Cc1nc(Nc2cc3c(c(C4=CCN(C)CCC4)c2)OCC3)nc(NC([2H])([2H])[2H])c1F` [Compound 220], the results for the pIC50 on human EHMT1 982-1266, on human EHMT2 913-1193 and in the assay on H3K9me2 in HCT116 cells were 6.30 to 7.00, 5.70 to 6.30 and 6.30 to 7.00, respectively.
`[2H]Cc1nc(Nc2cc3c(c(C4=CCN(C)CCC4)c2F)OCC3)nc(NC)c1F` [Compound 221]: the pIC50 on human EHMT1 982-1266 was 6.30 to 7.00; at human EHMT2 913-1193 it was 5.70 to 6.30; in the assay with H3K9me2 in HCT116 cells it was over 7.00.
Regarding `[2H]Cc1nc(Nc2cc3c(c(C4=CCN(C)CCC4)c2F)OCC3)nc(NCC([2H])([2H])[2H])c1F` [Compound 222], the pIC50 is 6.30 to 7.00 on human EHMT1 982-1266, 5.70 to 6.30 on human EHMT2 913-1193 and 6.30 to 7.00 with H3K9me2 in HCT116 cells.
For `CNc1nc(Nc2cc3c(c(C4=CCNCCC4)c2F)OCC3)nc(C)c1C` [Compound 223, N2-[6-fluoro-7-(2,3,4,7-tetrahydro-1H-azepin-5-yl)-2,3-dihydrobenzofuran-5-yl]-N4,5,6-trimethyl-pyrimidine-2,4-diamine], the negative logarithm of the IC50 (pIC50) at human EHMT1 982-1266, at human EHMT2 913-1193 and with H3K9me2 in HCT116 cells was over 7.00 each time.
For `CNc1nc(Nc2cc3c(c(C4=CCNCCC4)c2F)OCC3)nc(C)c1Cl` [Compound 224], the pIC50 at human EHMT1 982-1266, at human EHMT2 913-1193 and with H3K9me2 in HCT116 cells was over 7.00 in each case.
In the case of `[2H]Cc1nc(Nc2cc3c(c(C4=CCNCCC4)c2F)OCC3)nc(NC([2H])([2H])[2H])c1F` [Compound 225], the pIC50 on human EHMT1 982-1266, at human EHMT2 913-1193 and in the assay with H3K9me2 in HCT116 cells was over 7.00 throughout.
With `[2H]Cc1nc(Nc2cc3c(c(C4=CCNCCC4)c2F)OCC3)nc(NCC([2H])([2H])[2H])c1F` [Compound 226], the pIC50 on human EHMT1 982-1266 was over 7.00; at human EHMT2 913-1193 it was 6.30 to 7.00; in the assay on H3K9me2 in HCT116 cells, 6.30 to 7.00.
Consider `[2H]C([2H])([2H])N1CC=C(c2c(F)c(Nc3nc(C)cc(NC)n3)cc3c2OCC3)CCC1` [Compound 227], for which the pIC50 at human EHMT1 982-1266, on human EHMT2 913-1193 and in the assay on H3K9me2 in HCT116 cells was over 7.00 each time.
In the case of `[2H]C([2H])([2H])Nc1nc(Nc2cc3c(c(C4=CCN(C)CCC4)c2F)OCC3)nc(C)c1F` [Compound 228], the pIC50 was over 7.00 on human EHMT1 982-1266, 6.30 to 7.00 on human EHMT2 913-1193 and 6.30 to 7.00 in the assay with H3K9me2 in HCT116 cells.
As for `[2H]Cc1nc(Nc2cc3c(c(C4=CCNCCC4)c2)OCC3)nc(NC)c1F` [Compound 229], the pIC50 is over 7.00 at human EHMT1 982-1266, 6.30 to 7.00 at human EHMT2 913-1193 and 6.30 to 7.00 in the assay with H3K9me2 in HCT116 cells.
For `[2H]Cc1cc(NC([2H])([2H])[2H])nc(Nc2cc3c(c(C4=CCN(C)CCC4)c2)OCCO3)n1` [Compound 230], the results for the negative logarithm of the IC50 (pIC50) at human EHMT1 982-1266, on human EHMT2 913-1193 and in the assay with H3K9me2 in HCT116 cells were over 7.00, 6.30 to 7.00 and 6.30 to 7.00, respectively.
For `[2H]C([2H])([2H])CNc1cc(C)nc(Nc2cc3c(c(C4=CCNCCC4)c2F)OCC3)n1` [Compound 231], the pIC50 at human EHMT1 982-1266, at human EHMT2 913-1193 and in the assay on H3K9me2 in HCT116 cells was over 7.00 throughout.
As for `[2H]Cc1nc(Nc2cc3c(c(C4=CCNCCC4)c2)OCC3)nc(NC([2H])([2H])[2H])c1F` [Compound 232], the pIC50 at human EHMT1 982-1266, at human EHMT2 913-1193 and in the assay with H3K9me2 in HCT116 cells was 6.30 to 7.00 in each case.
As to `[2H]Cc1nc(Nc2cc3c(c(C4=CCNCCC4)c2)OCO3)nc(NCC([2H])([2H])[2H])c1F` [Compound 233], the pIC50 was 6.30 to 7.00 on human EHMT1 982-1266, 5.70 to 6.30 at human EHMT2 913-1193 and 5.70 to 6.30 in the assay with H3K9me2 in HCT116 cells.
For the compound `[2H]Cc1cc(NC([2H])([2H])[2H])nc(Nc2cc3c(c(C4=CCN(C)CCC4)c2F)OCC3)n1` [Compound 234], the pIC50 at human EHMT1 982-1266, at human EHMT2 913-1193 and in the assay on H3K9me2 in HCT116 cells was over 7.00 each time.
As to `[2H]Cc1nc(Nc2cc3c(c(C4=CCNCCC4)c2F)OCC3)nc(NC)c1F` [Compound 235], the pIC50 on human EHMT1 982-1266, at human EHMT2 913-1193 and with H3K9me2 in HCT116 cells was over 7.00 in each case.

Values taken from patent US20240368139A1, “NOVEL MODULATORS OF EHMT1 AND EHMT2 AND THERAPEUTIC USE THEREOF” (Tango Therapeutics, Inc., priority 2021, published 2024).
